Data on one compound can be found in US20250198902A1, “METHOD OF ANALYSING THE MOTIONAL ACTIVITY OF PARTICLES” (RESISTELL AG, priority 2022, published 2025).

Molecules are shown by their SMILES.

In this experiment the test system is human colon cancer cell line SW480. Kind of experiment: nanomotion drug sensitivity testing on cancer cells attached to microcantilever. The class given is cell-based. To be noted: SW480 cells in DMEM containing 10% FCS; 32 μM doxorubicin in Drug phase vs second Medium phase.

Experimental: In particular, these figures show the variance of the deflection of a microcantilever with attached human colon cancer cell line SW480 measured in cell culture medium and subsequent exposure to inhibitory concentrations of the drug doxorubicin (FIG. 25a) and the variance for cells kept in cell culture medium (FIG. 25b). The doxorubicin susceptible SW480 was cultured under standard laboratory conditions (i.e., cell culture medium (Dulbecco's Modified Eagle Medium (DMEM) containing 10% heat-inactivated fetal calf serum (FCS), 37° C., 5% CO2) in cell culture flasks. In preparation of nanomotion experiments, cells were detached, collected in cell culture medium, and washed in DMEM containing 10% FCS. The cell suspension was used for the attachment to the cantilever, and all nanomotion measurements with the device were performed in DMEM containing 10% FCS. The colon cancer cells were attached to the cantilever. Three phases of signal recording were performed: (i) Blank phase, where the deflections of the bare cantilevers are measured, (ii) the Medium phase, where the deflections of the cantilever with attached SW480 were measured followed by (iii) the Drug phase, where the deflections of the cantilever with attached SW480 after exposure to a drug were recorded or a second Medium phase without doxorubicin. […]

Take `COc1cccc2c1C(=O)c1c(O)c3c(c(O)c1C2=O)C[C@@](O)(C(=O)CO)C[C@@H]3O[C@H]1C[C@H](N)[C@H](O)[C@H](C)O1` [doxorubicin]: the “variance of the nanomotion signal (cantilever deflection) after drug exposure” value is “decrease in the variance after exposure to the drug is prominent”.
